In the NIST ThermoML archive (doi:10.1016/j.jct.2017.08.002):

Assay: mn = molality of the nth substance listed, in mol/kg
Details: 101.33 kPa, Liquid; for speed of sound: Frequency=2 MHz, Linear variable-path acoustic interferometer; for mass density: Pycnometric method

O=C([O-])c1ccccc1O.[Na+] [sodium salicylate] + O
Details	mass density, 288.15 K [kg/m3]	mass density, 298.15 K [kg/m3]	mass density, 308.15 K [kg/m3]	speed of sound, 288.15 K [m/s]	speed of sound, 298.15 K [m/s]	speed of sound, 308.15 K [m/s]
m1 = 0.01	–	–	994.69	–	–	1520.8
m1 = 0.0101	999.8	997.73	–	1466.8	1497.6	–
m1 = 0.0221	1000.62	998.51	995.46	1467.9	1498.8	1521.9
m1 = 0.0307	1001.19	999.07	–	1468.7	1499.6	–
m1 = 0.0333	–	–	996.16	–	–	1523
m1 = 0.04	–	–	996.59	–	–	1523.6
m1 = 0.0448	1002.19	1000	–	1470	1501	–
m1 = 0.0451	–	–	996.9	–	–	1524.2
m1 = 0.0501	1002.51	1000.34	997.24	1470.5	1501.5	1524.6
m1 = 0.0546	1002.85	1000.67	–	1470.8	1501.9	–
m1 = 0.0572	–	–	997.65	–	–	1525.3
m1 = 0.06	1003.2	1001.01	–	1471.4	1502.4	–
m1 = 0.0667	1003.66	–	–	1472	–	–
m1 = 0.0702	–	–	998.5	–	–	1526.5
m1 = 0.0704	1003.92	1001.66	–	1472.3	1503.5	–
m1 = 0.0802	1004.55	1002.35	999.1	1473.2	1504.4	1527.5
m1 = 0.0848	1004.87	1002.59	–	1473.6	1504.9	–
m1 = 0.0857	–	–	999.47	–	–	1528
m1 = 0.0906	1005.23	–	999.8	1474.2	–	1528.4
m1 = 0.0907	–	1002.99	–	–	1505.4	–
m1 = 0.0951	–	1003.26	1000.07	–	1505.8	1528.9
m1 = 0.1018	–	1003.68	–	–	1506.5	–
m1 = 0.1019	1006	–	–	1475.2	–	–
m1 = 0.1023	–	–	1000.5	–	–	1529.6
